Reference: patent EP1103270B1, “TREATMENT OF AUTOIMMUNE DISEASES IN MAMMALS” (UNIVERSIDAD COMPLUTENSE DE MADRID, priority 1999, dated 2000)

What was measured:
mRNA of IL-6 = assay: Northern Blot for mRNA of IL-6 in macrophages activated with LPS; type: cell-based, rat; conditions: macrophages activated with LPS and exposed to the peptide; Figure 5
Protocol: (§1) • Figure 1 represents the production of TNFα by murine macrophages in culture (5x10^5 cells/ml) stimulated with 10ngr/ml of LPS in the presence or absence of 10^-8M of VIP or ACHPA during the course of 24 hours. • Figure 2 represents the production of TNFα by murine macrophages in culture (5x10^5 cells/ml) after 6 hours of culture with 10ngr/ml of LPS and to which 10^-8M of VIP or ACHPA are added at different times. • Figure 3 represents the production of IL-6 by murine macrophages in culture (5x10^5 cells/ml) stimulated with 10ngr/ml of LPS in the presence or absence of 10^-8M of VIP or ACHPA during the course of 24 hours. • Figure 4 represents the production of IL-6 by murine macrophages in culture (5x10^5 cells/ml) after 6 hours of culture with 10ngr/ml of LPS and to which 10^-8M of VIP or ACHPA are added at different times. • Figure 5 presents the Northern Blot analysis for the presence of mRNA of TNFα and IL-6 in macrophages stimulated with LPS in the presence or absence of VIP or ACHPA (18S represents the corresponding rRNA as total quality control of loaded RNA). • Figure 6 represents the survival in mice injected with 400µgr of LPS and, simultaneously, or after 30 minutes, 1 or 4 hours, with 5 nmol of VIP or ACHPA.
(§2) Macrophages from rat were submitted to the experimental conditions described in examples 1 and 3 and their mRNA was isolated. […]

IL-6 [1] = assay: Circulating levels of IL-6 in mice after injection of LPS; type: in vivo; conditions: two hours after injection of 25 µgr. of LPS, simultaneous administration of 5nmol
Description: In an experiment carried out in mice the circulating levels of IL-6 two hours after injection of 25 µgr. of LPS were approximately 1.5 ngr./ml. The simultaneous administration of 5nmol of VIP or ACHPA reduced said levels by 60% and 75%, respectively.

IL-4 producing cells = assay: Number of IL-4 producing cells (ELISPOT) in spleen and peritoneum of KLH-immunised mice; type: in vivo; conditions: 5 nmol/mouse with second KLH injection, spleen and peritoneum cells two weeks later
anti-KLH antibodies = assay: Isotype of serum anti-KLH antibodies (ELISA) in KLH-immunised mice; type: in vivo; conditions: 5 nmol/mouse with second KLH injection, serum two weeks after the last immunisation
[2] = Survival of mice injected with a lethal dose of LPS (endotoxic shock); type: in vivo; conditions: mice injected with 400µgr of LPS
Protocol: as §1
An experiment was carried out in which the long-term survival over a period of 4 days was studied for mice injected with 400µgr of LPS. […]

mRNA of TNFα = assay: Northern Blot for mRNA of TNFα in macrophages activated with LPS; type: cell-based, rat; conditions: macrophages activated with LPS and exposed to the peptide; Figure 5
Protocol: as §1, §2

TNFα [3] = assay: Circulating levels of TNFα in mice after injection of LPS; type: in vivo; conditions: 2 hours after injection of 25 µgr of LPS, simultaneous administration of 5 nmol
Protocol: In an experiment carried out with mice the circulating levels of TNFα 2 hours after injection of 25 µgr of LPS were approximately 4 ngr./ml. Simultaneous administration of 5 nmol of VIP or ACHPA reduced said levels by 60%.

TNFα [4] = assay: Production of TNFα in peritoneal murine macrophages stimulated with LPS, in vitro; type: cell-based
Protocol: as §1
In experiments carried out "in vitro" VIP and ACHPA inhibit the production of TNFα in peritoneal murine macrophages stimulated with LPS. […]

IL-6 [5] = assay: Production of IL-6 in peritoneal murine macrophages stimulated with LPS, in vitro; type: cell-based
Protocol: In experiments carried out " in vitro" VIP and ACHPA inhibit the production of IL-6 in peritoneal murine macrophages stimulated with LPS. Most of the inhibition reaches values near to 90% and occurs with doses of stimulation of 10 µgr./ml of LPS. […] The inhibitory effect is also observed if the neuropeptides are added after stimulation with LPS, although the degree of inhibition is progressively smaller (see Figure 4).

adenylate cyclase hypophysary peptide activator [ACHPA]
transcripts for IL-6 (Northern Blot) (mRNA of IL-6): absence of transcripts
reduction of circulating levels of IL-6 (IL-6 [1]): 75%
increase in the number of IL-4 producing cells compared to untreated mice (IL-4 producing cells): ~20 times
isotype of anti-KLH antibodies detectable in serum (anti-KLH antibodies): only of the IgGl isotype
survival rates ([2]; administration up to 1 hour after injection with LPS): ~50%
survival at the end of the experiment ([2]; simultaneous administration of 5 nmol, period of 4 days): 60%
transcripts for TNFα (Northern Blot) (mRNA of TNFα): absence of transcripts
reduction of circulating levels of TNFα (TNFα [3]): 60%
IC50 (TNFα [4]; peritoneal murine macrophages stimulated with LPS, read-out: IC50 (inhibition of the production of TNFα)): 0.08 nM
greatest degree of inhibition of the production of TNFα (TNFα [4]; peritoneal murine macrophages, stimulation with 1-10 ngr./ml of LPS): ~60%
IC50 (IL-6 [5]; peritoneal murine macrophages stimulated with LPS, read-out: IC50 (inhibition of the production of IL-6)): 0.0086 nM
inhibition of the production of IL-6 (most of the inhibition) (IL-6 [5]; peritoneal murine macrophages, stimulation with 10 µgr./ml of LPS): ~90%
